{"source": "patent US4139504A", "about": "“Novel nonapeptides, intermediates therefor, and compositions and methods employing said nonapeptides” (priority 1977, dated 1979)", "origin": "cited, not measured here", "key": {"[1]": {"tested_on": "rat", "conditions": "injected directly into the brain of the rat"}, "[2]": {"tested_on": "brain opiate receptor sites"}}}
{"substance": "H--Tyr--Gly--Gly--Phe--Met--OH [methionine enkephalin]", "values": [{"measurement": "analgesic activity", "setting": "[1]", "value": "only weak analgesic agent of short duration"}, {"measurement": "binding to partially purified brain opiate receptor sites", "setting": "[2]", "value": "binds stereo-specifically"}]}
